Data taken from patent US20240123249A1, “ANALGESIA VIA LOW AND ULTRA-LOW FREQUENCY MAGNETIC OR ELECTROMAGNETIC FIELDS AND RELATED SYSTEMS AND METHODS” (EMulate Therapeutics, Inc., priority 2022, published 2024).

Key:
mechanical hyperalgesia = assay: Carrageenan induced mechanical hyperalgesia, paw pressure test (Randall & Selitto); type: in vivo, rat
tactile allodynia = assay: Bennett model of peripheral mononeuropathy, tactile allodynia by electronic Von Frey; type: in vivo, rat
cold allodynia = assay: Oxaliplatin induced neuropathic cold allodynia, paw immersion test; conditions: rat, in vivo
[1] = 30 minutes after morphine 3 mg/kg / 24 hours after signal exposure
[2] = pair-wise Students T-test, α=0.01

## COc1ccc2c(c1)c(CC(=O)O)c(C)n2C(=O)c1ccc(Cl)cc1 [Indomethacin]
Mechanical hyperalgesia; 3 h after 2% carrageenan, signals 24 h exposure, Indomethacin 30 mg/kg, MC 1% group 218±18
  applied pressure, carrageenan injected (injured) paw: 306±21 grams
Mechanical hyperalgesia; Dunnett's test after ANOVA, N=10
  Carrageenan: statistical significance (P) versus MC 1% group, injured paw: 0.01
Mechanical hyperalgesia; left paw not injected with carrageenan, Dunnett's test
  Carrageenan model: significance versus MC 1% group, uninjured paw: no significant differences between groups in the uninjured paws, except in the Indomethacin injected group

## CN1CC[C@]23c4c5ccc(O)c4O[C@H]2[C@@H](O)C=C[C@H]3[C@H]1C5 [morphine]
Tactile allodynia; [1]
  average force applied, control paw, Post-Tx: 578±73 grams
  average force applied, injured paw, Post-Tx: 438±51 grams
Tactile allodynia; before treatment
  average force applied, control paw, Pre-Tx: 300±30 grams
  average force applied, injured paw, Pre-Tx: 180±27 grams
Tactile allodynia; [2]
  Bennett: statistical significance (P) Pre-Tx vs. Post-Tx, Control Paw: < 0.00001
  Bennett: statistical significance (P) Pre-Tx vs. Post-Tx, Injured Paw: reached statistical significance

## CNCC[C@H](Oc1cccc2ccccc12)c1cccs1 [duloxetine]
Cold allodynia
  Oxaliplatin: statistical significance (P) versus MC 1% control group: significantly increased
  leg withdrawal time (latency of hind paw withdrawal): 13.2 ± 1.6 s
